Laboratory results as given in patent US12642862B2, “Anti-CD79B antibody-drug conjugate, and preparation method therefor and pharmaceutical use thereof” (TUOJIE BIOTECH (SHANGHAI) CO., LTD., priority 2020, dated 2026).
Like-named read-outs stand apart in the source and are kept apart here.

T1: CD79B protein on the surface of DoHH2 cells (Homo sapiens, UniProt P40259)
T1 construct: endogenous in cells; host or cells: DoHH2 (DOHH-2) cells
T1 sequence (P40259 29-229): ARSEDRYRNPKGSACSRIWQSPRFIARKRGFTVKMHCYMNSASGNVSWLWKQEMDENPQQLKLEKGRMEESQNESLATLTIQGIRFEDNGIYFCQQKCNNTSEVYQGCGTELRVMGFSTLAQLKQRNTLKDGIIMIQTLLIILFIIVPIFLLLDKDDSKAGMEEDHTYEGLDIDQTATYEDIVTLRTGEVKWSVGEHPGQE
T1 sequence (P11912 33-226 partner): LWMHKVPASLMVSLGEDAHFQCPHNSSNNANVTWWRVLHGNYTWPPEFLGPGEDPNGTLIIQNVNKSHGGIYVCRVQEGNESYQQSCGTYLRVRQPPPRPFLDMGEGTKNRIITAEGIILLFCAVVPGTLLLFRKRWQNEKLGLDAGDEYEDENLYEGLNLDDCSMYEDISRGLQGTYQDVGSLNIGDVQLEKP

T2: human CD79B (Homo sapiens, UniProt P40259)
T2 sequence (P40259 29-159 limits assumed): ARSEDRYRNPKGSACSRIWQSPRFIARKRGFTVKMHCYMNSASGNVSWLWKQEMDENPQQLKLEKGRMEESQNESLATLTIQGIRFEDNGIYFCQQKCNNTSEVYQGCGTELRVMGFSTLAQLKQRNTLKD


Legend:
SKBR3 = test: Test Example 1 in vitro cytotoxic activity (CTG), SKBR3; type: cell-based; details: for IC50: Homo sapiens, SK-BR-3, 120 h
Method: (§1) In this experiment, the ATP content was determined using CTG to reflect the survival condition of the tumor cells. […] The killing effect of the toxin molecule was then assayed according to this condition.
(§2) 1) Cell plating: each of A549, SKBR3 and MDA-MB-468 was digested with pancreatin, resuspended in a culture medium and counted, and 6.33×10^5 cells were added to the medium to make a final volume of 38 mL. 180 μL of the culture medium was plated in a 96-well plate (3903) to obtain a cell density of 3 K/well, and the cells were cultured at 37° C. for 24 h.
(§3) 2 mM solution (10-fold dilution of stock solution in DMSO) was prepared in column 1 of the plate 1, then 10-fold gradient dilution in DMSO was performed in columns 2 to 10. The wells in column 11 were filled with DMSO. 95 μL of corresponding culture medium was added to each well of columns 2 to 11 of the plate 2, and 5 μL of solution was pipetted from columns 2 to 11 of the plate 1 and added to the plate 2. After the solution was mixed well, 20 μL of solution was pipetted and added to the plated cells. Each sample was run in duplicate. The cells were continuously cultured for 5 days.
(§4) 3) CTG assay: the plate was taken out and allowed to equilibrate to room temperature. 90 μL of CTG was added to each well and reacted at room temperature for 10 min away from the light. The luminescence value was read using a microplate reader and IC50 was calculated.

MDA-MB-468 = test: Test Example 1 in vitro cytotoxic activity (CTG), MDA-MB-468; type: cell-based; details: for IC50: Homo sapiens
Method: as §1, §2, §3, §4

A549 = test: Test Example 1 in vitro cytotoxic activity (CTG), A549; type: cell-based; details: for IC50: Homo sapiens
Method: as §1, §2, §3, §4

[1] = biological target: T1, CD79B protein on the surface of DoHH2 cells; test: FACS of anti-human CD79B hybridoma positive clones; type: binding
Method: 4) FACS screening The suspension of DoHH2 cells was centrifuged, resuspended in PBS containing 0.1% BSA, and counted. The test serum was added, and the cells were incubated at room temperature for 60 min and washed. Then Anti-Mouse IgG (Fc specific)-FITC secondary antibody was added, and the cells were incubated at room temperature for 30 min away from the light, washed three times, gently resuspended in PBS containing 0.1% BSA, and loaded on the machine for assay.
(§5) 5) Identification of hybridoma positive clones A plurality of specific antibodies against human CD79B antigen were obtained; and 17 strains of hybridomas having strongest binding force to ELISA and FACS in assays were taken for production and purification of antibodies. Specific antibodies against monkey CD79B antigen were also obtained; and 4 strains of hybridomas having strongest binding force to ELISA and FACS in assays were taken for production and purification of antibodies. Assay results of anti-monkey CD79B hybridoma positive clone cells by FACS are shown in Table 4. mIgG was used as negative control in the both assays.

[2] = biological target: T1, CD79B protein on the surface of DoHH2 cells; test: FACS of purified anti-human CD79B mouse monoclonal antibodies on DoHH2 cells; type: binding; details: for FACS binding force: antibodies diluted 1:10 from 100 nM, FIGS. 9A, 9B; for FACS binding force compared with SN8: positive control antibody SN8
Method: 3) Assay on anti-human CD79B mouse monoclonal antibodies by FACS The cell suspension of DoHH2 cells was centrifuged, resuspended in PBS containing 0.1% BSA, and counted. 100 μL of antibody diluted in a 1:10 ratio from 100 nM was added, and the cells were incubated at room temperature for 1 h and washed three times. Then Anti-Mouse IgG (Fc specific)-FITC secondary antibody was added, and the cells were incubated at room temperature for 30 min away from the light, washed three times, gently resuspended in PBS containing 0.1% BSA, and loaded on the machine for assay. […] The specific data are shown in FIGS. 9A and 9B, in which hIgG1 is a negative control antibody and SN8 is a positive control antibody. SN8 is an antibody (reference sequence source: US20170362318A) used in the antibody-drug conjugate polatuzumab vedotin developed by Roche pharmaceutical. Polatuzumab vedotin has been approved by the FDA for marketing.

human CD79B [3] = biological target: T2, human CD79B; test: ELISA of purified anti-human CD79B mouse monoclonal antibodies; type: binding; set-up: the extracellular region (ECD) of human CD79B comprises 159 amino acids (Met1-Asp159); made in house; host or cells: 293F cells; details: purified antibodies diluted 1:10 from 100 nM; FIG. 8
Method: (§6) 2) Assay on anti-human CD79B mouse monoclonal antibodies by ELISA A 96-well plate was coated with 1 μg/mL antigen at 50 μL/well and incubated in a refrigerator at 4° C. overnight. The next day, the coated antigen plate was washed once (washing solution: 1×PBST). After washing, the plate was blocked with 1% BSA blocking solution prepared in 1×PBST at 37° C. for 1 h. After washing the plate 3 times with 1×PBST, 50 μL of antibody diluted in a 1:10 ratio from 100 nM was added, and the plate was incubated in an incubator at 37° C. for 1 h. After washing the plate 3 times with 1×PBST, 100 μL of goat anti-mouse secondary antibody diluted in a 1:5000 ratio was added, and the plate was incubated in an incubator at 37° C. for 0.5 h. After washing the plate, TMB color development solutions A and B were mixed in a 1:1 ratio for color development. 15 min later, the color development reaction was stopped with 1 N hydrochloric acid. […] value was read at 450 nm on a Spectra Max M5 microplate reader.

human CD79B [4] = biological target: T2, human CD79B; test: ELISA of anti-human CD79B hybridoma positive clones; type: binding; set-up: the extracellular region (ECD) of human CD79B comprises 159 amino acids (Met1-Asp159); made in house; host or cells: 293F cells; details: hybridoma cell supernatant, read at 450 nm
Method: as §6, with “3)” for “2) Assay on anti-human CD79B mouse monoclonal antibodies by”, “ELISA screening” for “ELISA”, “the test cell supernatant” for “antibody diluted in a 1:10 ratio from 100 nM”
as §5

Molecule | Mean fluorescence value [1] | FACS binding force [2] | FACS binding force compared with SN8 [2] | ELISA binding force (human CD79B [3]) | Results (OD450) (human CD79B [4]) | also measured
C=C1C[C@@H]2CC[C@@]34C[C@H]5O[C@H]6[C@@H](O3)[C@H]3O[C@H](CC[C@@H]3O[C@H]6[C@H]5O4)CC(=O)C[C@@H]3[C@@H](OC)[C@@H](C[C@H](O)CN)O[C@H]3C[C@H]3O[C@@H](CC[C@@H]1O2)C[C@@H](C)C3=C [Eribulin, reference compound] | – | – | – | – | – | IC50 (SKBR3; SKBR3, 5 days, CTG, read-out: IC50): 0.715 nM; IC50 (MDA-MB-468; 120 h, MDA-MB-468, 5 days, CTG, read-out: IC50): 0.482 nM; IC50 (A549; 120 h, A549, 5 days, CTG, read-out: IC50): 0.661 nM
C=C1C[C@@H]2CC[C@@]34C[C@H]5O[C@H]6[C@@H](O3)[C@H]3O[C@H](CC[C@@H]3O[C@H]6[C@H]5O4)CC(=O)C[C@@H]3[C@@H](OC)[C@@H](C[C@@H](CN)OC)O[C@H]3C[C@H]3O[C@@H](CC[C@@H]1O2)C[C@@H](C)C3=C [D-1] | – | – | – | – | – | IC50 (SKBR3): 0.205 nM; Maximum inhibition (%) (SKBR3; SKBR3, 5 days, CTG): 96.87%; killing effect compared with eribulin (SKBR3; three tumor cell lines SKBR3, MDA-MB-468 and A549): good killing effect in three tumor cell lines and is significantly superior to the positive drug eribulin; IC50 (MDA-MB-468; MDA-MB-468, 120 h): 0.183 nM; Maximum inhibition (%) (MDA-MB-468; MDA-MB-468, 5 days, CTG): 88.01%; Maximum inhibition (%) (A549; A549, 5 days, CTG): 81.34%; IC50 (A549; A549, 120 h): 0.515 nM
mAb016: anti-human CD79B mouse monoclonal antibody, hybridoma clone 83C2D4 (antibody, V domains shown) VH: QVQLQQSGAELARPGASVKLSCKASGYIFTNYGIIWVKQRTGQGLEWIGDIFPGSGNTYYNENFKGKATLTADKSSSTAYMELRSLTSEDSAVYFCSRGELGDFDYWGQGTTLTVSS VL: VVLMTQTPLSLPVSLGDQASISCRSSQNIVHSDGTTYLEWYLQKPGQSPKLLIYKVSNRFSGVPDRFSGSGSGTDFTLKISRVEAEDLGIYYCFQGSHVPWTFGGGTKLEIK | 9990 | strongest FACS binding force | superior binding force to SN8 | strongest ELISA binding force | 3.46 | –
mAb017: anti-human CD79B mouse monoclonal antibody, clone 86F11F6; VH SEQ ID NO: 5, VL SEQ ID NO: 6 (antibody, listed as Mus musculus, V domains shown) VH: QVQLQQSGAELARPGASVKLSCKASGYTFTTYGINWVKQRTGQGLEWIGEIYPRSGNIYYNEKFKGKATLTADKSSSTAYMELRSLTSEDSAVYFCARGSDYDGDFAYWGQGTLVTVSA VL: DVLMTQTPLSLPVSLGDQASISCRSSQSIVHHDGNTYLEWYLQKPGQSPKLLIYKVSNRFSGVPDRFSGSGSGTDFTLKISRVEAEDLGVYYCFQGSHVPWTFGGGTQLEIK | 8132 | strongest FACS binding force | superior binding force to SN8 | strongest ELISA binding force | 3.80 | –
